Assay results reported in publication PMC12457078, “Inhibition of soluble epoxide hydrolase in endotoxin induced pig lung injury” (Frontiers in Pharmacology, 2025).
Where “and” joins values, the source holds several entries; their conditions need not be identical. Equal entries are not always repeated.

System: sEH
Test: oxylipin analysis, epoxide/diol ratios (target engagement)
Type: in vivo, pig
Design: 14,15-DiHETE: unit not given beside the values; 12,13-DiHOME / 9,10-DiHODE / 11,12-DiHETrE / 14,15-DiHETrE / 10,11-DiHDPE / 19,20-DiHDPE / 13-HODE / 5-HETE / 11-HETE / 12-HETE / 5-HEPE / 9(10)-EpOME / 12(13)-EpOME / EKODE / 11(12)-EpETE: unit not given here
Conditions: for 9,10,13-TriHOME / 9,12,13-TriHOME: bad chromatography; for 14,15-DiHETE: high blanks
Procedure: All animals were monitored with pulse oximetry, heart rate, ECG, systemic arterial blood pressure (ABP), pulmonary arterial pressure (PAP), central venous pressure (CVP) temperature, tidal volumes, respiratory rate and end tidal carbon dioxide. At baseline, and at 3 h, 6 h and at the end of the experiment, pulmonary capillary wedge pressure (PCWP) was measured together with arterial and venous blood gas analyses, as well as cardiac output calculations. Routine chemistry, including creatinine, bilirubin, glucose, electrolytes were collected at baseline and at the end of the experiment (Vetscan VS2®, Abaxis, Griesheim, Germany). Blood samples for measurement of AEPU plasma concentrations, as well as oxylipins (i.e., EpETrEs and their DiHETrE corresponding diols as well as related compounds with other polyunsaturated fatty acid precursors), were collected at baseline, 6 h and at the end of the experiment.
This meant nine subjects in each group to achieve 90% power of detecting a difference of this size given α = 0.05. Anticipating that not all experiments would reach completion, we used a sample size of 22. The results were analyzed using SPSS Statistics, version 24 (IBM Corp., Armonk, N.Y., United States). Normality was examined with the Shapiro-Wilk test, together with examination of histograms of data. Continuous variables were compared using Student’s t-test or Mann Whitney U test, as appropriate. Categorical variables were compared using Fischer’s exact test. Statistical significance was set at α < 0.05. Oxylipins with at least 80% of observations above limit of detection at both timepoints were included in pairwise comparisons of ratios and fold-change evaluations where observations below limit of detection (LOD) were substituted with 0.5 x LOD.

For `CCOCCOCCOCCCCCNC(=O)NC12CC3CC(CC(C3)C1)C2` [sEH-i], the 13-HOTrE (time 0, individual pigs) was 1.38 and 2.03 and 0.71 and 0.95 and 0.65, the 13-oxo-ODE (time 0, individual pigs) was “<LOD” and the “14(15)-EpETE” value (time 0, individual pigs) was “<LOD”. For the same compound, the “14(15)-EpETrE” value (time 0, individual pigs) was “<LOD”, the “14,15-DiHETrE” value (time 0, individual pigs) was 0.82 and 0.55 and 0.35 and 0.43 and 0.51 and the “15(16)-EpODE” value (time 0, individual pigs) was 12.33 and 9.22 and 4.38 and 5.90 and 3.04. The “15,16-DiHODE” value (time 0, individual pigs) was 22.17 and 16.83 and 10.14 and 20.63 and 11.96, the 15-HEPE (time 0, individual pigs) was “<LOD” and the 15-HETE (time 0, individual pigs) was 0.31 and 0.33 and 0.20 and 0.29 and 0.16. For the same compound, the 15-HETrE (time 0, individual pigs) was 0.19 and 0.21 and 0.13 and 0.18 and 0.10, the 15-oxo-ETE (time 0, individual pigs) was 0.03 and <LOD and 0.043 and 0.0266 and the “16(17)-EpDPE” value (time 0, individual pigs) was “<LOD”. For the same compound, the “16,17-DiHDPE” value (time 0, individual pigs) was 0.10 and 0.0746 and 0.0252 and 0.0444 and 0.03, the “17(18)-EpETE” value (time 0, individual pigs) was “<LOD” and the “17,18-DiHETE” value (time 0, individual pigs) was 0.69 and 0.45 and 0.26 and 0.66 and 0.46. The 17-HDoHE (time 0, individual pigs) was “<LOD”, the “19(20)-EpDPE” value (time 0, individual pigs) was “<LOD” and the “19,20-DiHDPE” value (time 0, individual pigs) was 1.19 and 0.80 and 0.30 and 1.02 and 0.43. For the same compound, the 20-HETE (time 0, individual pigs) was 0.11 and 0.12 and 0.0652 and 0.10 and 0.0444, the EKODE (time 0, individual pigs) was 0.36 and 0.27 and 0.38 and 0.31 and 0.33 and the LTB4 (time 0, individual pigs) was “<LOD and 0.17”. The PGD2 (time 0, individual pigs) was “<LOD”, the PGE2 (time 0, individual pigs) was “<LOD” and the PGF2a (time 0, individual pigs) was “<LOD and 0.0428”. For the same compound, the “Resolvin D1” value (time 0, individual pigs) was “<LOD”, the “Resolvin D2” value (time 0, individual pigs) was “<LOD” and the TXB2 (time 0, individual pigs) was 0.0943 and 0.19 and 0.08601 and 0.18. For the same compound, the “9,10,13-TriHOME” value (time 0, individual pigs) was 3.66 and 5.50 and 4.37 and 4.76 and 5.61, the “9,12,13-TriHOME” value (time 0, individual pigs) was “<LOD” and the “14,15-DiHETE” value (time 0, individual pigs) was 0.1158 and 0.09583 and 0.02876 and 0.02655 and 0.09648. The “5(6)-EpETrE” value (time 6, individual pigs) was “<LOD”, the “5,6-DiHETrE” value (time 6, individual pigs) was “<LOD” and the 5-HEPE (time 6, individual pigs) was 0.06 and 0.18 and <LOD and 0.07 and 0.05. For the same compound, the 5-HETE (time 6, individual pigs) was 0.3567 and 0.58 and 0.2089 and 0.4225 and 0.4419, the 5-oxo-ETE (time 6, individual pigs) was 0.11 and 0.18 and <LOD and 0.14 and 0.15 and the “7(8)-EpDPE” value (time 6, individual pigs) was “<LOD”. The “7,8-DiHDPE” value (time 6, individual pigs) was “<LOD”, the “8(9)-EpETE” value (time 6, individual pigs) was “<LOD” and the “8(9)-EpETrE” value (time 6, individual pigs) was “<LOD”. For the same compound, the “8,9-DiHETE” value (time 6, individual pigs) was “<LOD”, the “8,9-DiHETrE” value (time 6, individual pigs) was 0.10 and 0.07 and <LOD and 0.0449 and the 8-HETE (time 6, individual pigs) was 0.07 and 0.09 and 0.04 and 0.12 and 0.0759. The “9(10)-EpODE” value (time 6, individual pigs) was 0.63 and 0.49 and 0.36 and 0.35 and 0.42, the “9(10)-EpOME” value (time 6, individual pigs) was 1.87 and 1.33 and 0.60 and 1.51 and 2.48 and the “9,10-DiHODE” value (time 6, individual pigs) was 0.64 and 1.20 and 1.17 and 0.73 and 0.69. The “9,10-DiHOME” value (time 6, individual pigs) was 5.75 and 8.57 and 9.02 and 5.97, the 9-HETE (time 6, individual pigs) was “<LOD” and the 9-HODE (time 6, individual pigs) was 13.28 and 24.06 and 22.88 and 16.64 and 15.68. For the same compound, the 9-HOTrE (time 6, individual pigs) was 1.36 and 2.59 and 1.91 and 1.50 and 0.95, the 9-oxo-ODE (time 6, individual pigs) was “<LOD” and the “10(11)-EpDPE” value (time 6, individual pigs) was “<LOD”. For the same compound, the “10,11-DiHDPE” value (time 6, individual pigs) was 0.07 and 0.03 and 0.0327 and 0.02 and 0.0362, the “11(12)-EpETE” value (time 6, individual pigs) was 0.1179 and 0.09737 and 0.1269 and 0.06515 and 0.0705 and the “11(12)-EpETrE” value (time 6, individual pigs) was 0.05 and 0.0441 and 0.0274 and 0.0271. The “11,12-DiHETE” value (time 6, individual pigs) was 0.0351 and 0.0319 and 0.0666 and 0.03 and 0.05, the “11,12-DiHETrE” value (time 6, individual pigs) was 0.86 and 0.62 and 1.36 and 0.66 and 0.92 and the 11-HETE (time 6, individual pigs) was 0.42 and 0.30 and 0.66 and 0.25 and 0.40. The “12(13)-EpODE” value (time 6, individual pigs) was 1.12 and 0.79 and 0.95 and 0.91, the “12(13)-EpOME” value (time 6, individual pigs) was 5.25 and 4.08 and 1.60 and 5.63 and 7.56 and the “12,13-DiHODE” value (time 6, individual pigs) was 1.01 and 1.89 and 1.53 and 1.48 and 1.36. The “12,13-DiHOME” value (time 6, individual pigs) was 16.00 and 24.72 and 21.84 and 22.49 and 19.00, the 12-HEPE (time 6, individual pigs) was 0.08 and 0.11 and 0.06 and 0.0632 and 0.04 and the 12-HETE (time 6, individual pigs) was 1.11 and 0.86 and 0.59 and 0.65 and 0.46. For the same compound, the 12-oxo-ETE (time 6, individual pigs) was “<LOD”, the “13(14)-EpDPE” value (time 6, individual pigs) was “<LOD” and the “13,14-DiHDPE” value (time 6, individual pigs) was 0.15 and 0.10 and 0.13 and 0.06. The 13-HODE (time 6, individual pigs) was 42.16 and 101.75 and 49.69 and 56.11 and 42.57, the 13-HOTrE (time 6, individual pigs) was 1.94 and 6.77 and 3.06 and 2.84 and 1.84 and the 13-oxo-ODE (time 6, individual pigs) was “<LOD and 5.47”. For the same compound, the “14(15)-EpETE” value (time 6, individual pigs) was “<LOD”, the “14(15)-EpETrE” value (time 6, individual pigs) was “<LOD and 0.0855 and 0.08” and the “14,15-DiHETrE” value (time 6, individual pigs) was 1.69 and 1.48 and 1.65 and 0.72 and 0.63. The “15(16)-EpODE” value (time 6, individual pigs) was 24.31 and 29.46 and 11.19 and 30.59 and 26.51, the “15,16-DiHODE” value (time 6, individual pigs) was 54.83 and 45.60 and 30.98 and 42.25 and 33.76 and the 15-HEPE (time 6, individual pigs) was “<LOD”. For the same compound, the 15-HETE (time 6, individual pigs) was 0.63 and 0.86 and 0.43 and 0.48, the 15-HETrE (time 6, individual pigs) was 0.41 and 0.47 and 0.48 and 0.37 and 0.39 and the 15-oxo-ETE (time 6, individual pigs) was 0.0346 and <LOD and 0.03 and 0.0128. The “16(17)-EpDPE” value (time 6, individual pigs) was “<LOD”, the “16,17-DiHDPE” value (time 6, individual pigs) was 0.19 and 0.20 and 0.14 and 0.0527 and 0.085 and the “17(18)-EpETE” value (time 6, individual pigs) was “<LOD”. For the same compound, the “17,18-DiHETE” value (time 6, individual pigs) was 1.22 and 1.33 and 1.55 and 0.59 and 1.01, the 17-HDoHE (time 6, individual pigs) was “<LOD” and the “19(20)-EpDPE” value (time 6, individual pigs) was “<LOD”. The “19,20-DiHDPE” value (time 6, individual pigs) was 1.72 and 1.58 and 1.48 and 0.68 and 0.62, the 20-HETE (time 6, individual pigs) was 0.11 and 0.12 and 0.08 and 0.10 and the EKODE (time 6, individual pigs) was 0.88 and 0.74 and 0.47 and 0.87 and 1.05. For the same compound, the LTB4 (time 6, individual pigs) was “<LOD and 0.28 and 0.38 and 0.18 and 0.43”, the PGD2 (time 6, individual pigs) was “<LOD and 0.01 and 0.00656” and the PGE2 (time 6, individual pigs) was 0.095 and 0.06 and 0.20 and <LOD and 0.12. The PGF2a (time 6, individual pigs) was 1.61 and 0.65 and 4.40 and 0.44 and 2.56, the “Resolvin D1” value (time 6, individual pigs) was “<LOD” and the “Resolvin D2” value (time 6, individual pigs) was “<LOD”. For the same compound, the TXB2 (time 6, individual pigs) was 2.92 and 3.83 and 2.22 and 1.21 and 1.79, the “9,10,13-TriHOME” value (time 6, individual pigs) was 2.86 and 3.12 and 7.92 and 7.73 and 5.56 and the “9,12,13-TriHOME” value (time 6, individual pigs) was “<LOD and 0.24”. The “14,15-DiHETE” value (time 6, individual pigs) was 0.3645 and 0.4177 and 0.09663 and 0.04163 and 0.2578.
